Test results: patent publication US7960549B2, “Solid forms of a chemokine receptor antagonist and methods of use thereof” (priority 2004, dated 2011)
Where a name gives a salt, the structure may show the parent alone.

What was measured:
Format in all cases: physicochemical
[1] = Controlled temperature (isothermal) X-ray powder diffraction: thermal stability of the crystalline form; conditions: dry nitrogen; for form conversion as the temperature is raised (isothermal XRPD): ambient to 210° C.; for loss of stability (lines unique to the form disappear), isothermal XRPD: sample containing Forms E, F, and G, steps of 10° C.
Protocol: X-ray powder diffraction (XRPD) is performed on various samples of the Citrate Salt using one of three instruments. XRPD measurements with Instrument 1 utilize a Siemens-Bruker D5000 Matic powder diffractometer with a Bragg-Brentano (vertical θ-2θ configuration) parafocusing geometry. X-rays are produced from a sealed cobalt anode running at 40 kV and 30 mA. Two lines are typically emitted: CoKα1 (λ=1.7890 Å) and CoKα2 (λ=1.7929 Å). An iron β-filter limits the CoKβ (λ=1.6208 Å) radiation to about 1% of the diffracted beam at the detector. The primary beam passes through a parallel plate collimator (0.2 mm Soller slits), then through a divergence slit (0.2 mm). Diffracted X-rays are detected with a Braun 50 M multichannel linear detector having a 10°-wide detection window in angle 2θ. Scans are performed from 1.5° to 50.0° in 2θ, the scan time being 10 to 40 seconds per degree in 2θ. The error in the 2θ locations are typically within ±0.10 degrees.
In Instrument 3, XRPD measurements are performed at different temperatures to elucidate the evolution of crystal structure with temperature. Tests are carried out with a Siemens-Bruker D5000 diffractometer equipped with the Bragg Brentano parafocusing (θ-θ) geometry and an Anton-Paar TTK temperature chamber. Measurements utilize dry nitrogen or nitrogen streams having a particular humidity. The instrument specifications are substantially similar to the Siemens-Bruker D5000 Matic instrument described above (Instrument 1). Temperature is allowed to rise at a rate of 0.05° C./sec. Scans are recorded under the following conditions: a 1.5 to 50.0 degree scan in angle 2θ, 10 to 20 seconds counting time per degree in 2θ. Data are acquired in isotherm mode when the requested temperature is reached.

[2] = Water sorption/desorption cycling (dynamic vapor sorption, DVS) at 25° C., with XRPD before and after; conditions: for XRPD before and after water sorption/desorption cycling: four consecutive cycles, start at 40%, cycled between 100% and 0% relative humidity, mixed samples; for global / net weight loss after all 4 water sorption/desorption cycles: four cycles between 100% and 0% relative humidity
Protocol: Water sorption measurements are performed on a DVS-1 automated gravimetric vapor sorption analyser (Surface Measurement Systems Ltd., London, UK). The DVS-1 measures the uptake and loss of vapor gravimetrically using a Cahn D200 recording ultra-microbalance with a mass resolution of ±0.1 μg. The relative humidity around the sample is controlled by mixing saturated and dry carrier gas streams using mass flow controllers. The temperature is maintained within ±0.1° C. by enclosing the entire system in a temperature-controlled incubator. A sample size between 15 and 20 mg is used. In general, the error in % (w/w) identified in a tested sample is ±0.1% (w/w).
Two protocols are utilized to operate the DVS. In one protocol, a sample is dried at 0% relative humidity (RH) to remove any surface water present and establish a dry, baseline mass. Next, the sample is exposed to the following relative humidity profile: 0%, 10%, 20%, 30%, 40%, 50%, 60%, 70%, 80%, 90%, 80%, 70%, 60%, 50%, 40%, 30%, 20%, 10%, 0%. In some instances, this profile is repeated, yielding 4 sets of data going up and down in RH. In another protocol, the sample is first equilibrated at 40% RH, then it was exposed to the following relative humidity profile: 40%, 50%, 60%, 70%, 80%, 90%, 100%, 90%, 80%, 70%, 60%, 50% 40% 30%, 20% 10%, 0%, 10%, 20%, 30%, 40%. […] If equilibrium state is not reached, the change in relative humidity took place automatically after 360 or 600 minutes. From the complete moisture sorption and desorption profile, an isotherm is calculated using the DVS Advanced Analysis Suite v3.6. All experiments were performed at 25° C.

[3] = Differential scanning calorimetry (DSC)
Protocol: Differential scanning calorimetry (DSC) analyses are performed using a T.A Instruments Q1000 thermal analyser. Analyses are carried out using nitrogen purge gas flowing at an average rate of 50 ml/min. A mechanical compressor cools the system, and equilibrates the instruments being used at ambient temperature between analyses. […] Energy calibration is performed with a certified indium calibrator (melting enthalpy of 28.45 J/g), applying a heating rate of 5° C./min. The temperatures identified from DSC scans of a particular sample are accurate to within ±3° C. […] Modulated temperature differential scanning calorimetry (MTDSC) is also used since deconvolution of the total heat flow into reversing and non-reversing heat flows allows the transitions to be easily identified. The samples were submitted to the same experimental temperature program: after the equilibration of the sample at −5° C., the samples were heated through a modulated program from −5° C. to 210° C. at a rate of 1° C./min. […] Experiments are performed using crimped aluminium sample pans or open pans in some cases. The quantity of product analysed is typically between 2 and 13 mg.

[4] = Thermal gravimetric analysis (TGA)
Protocol: Measurements utilizing thermal gravimetric analysis (TGA) are carried out on a T.A. instruments TGAQ500 analyzer. Mass calibration is performed with 10 and 100 mg certified masses. Temperature calibration is performed with Alumel® and nickel standards (Curie points of respectively 154° C. and 354° C.). Samples are exposed to a constant nitrogen stream of 60 ml/min, and temperature ranges from room temperature to 350° C. at a 5° C./min rate. The quantity of product tested is between 2 and 13 mg. The sample is deposited in an open aluminum sample pan, which is itself placed in a platinum pan. The temperatures identified from TGA scans of a particular sample are accurate to within ±3° C. Simultaneous TGA and DSC measurements are carried out using a […] thermal analysis system produced by the […] corporation. A liquid nitrogen cooling system makes it possible to work at temperatures below 20° C. The emitted gases, upon sample heating, are carried by a transfer capillary tube to a Pfeiffer mass spectrometer, the capillary tube heated to 150° C. The mass spectrometer can analyze molecular fragments at <<m/e>> ratios between 1 and 200 uma. A sample with a mass between 1 and 27 mg is contained in an open concave aluminum sample pan (75 μL capacity) exposed to a nitrogen stream. The sample is heated at a rate of 1 or 5° C./min.

[5] = mixture of Forms A and D, 0.3° C./min, Form D: conversion to Form A, Form A: melting/decomposition
[6] = 25° C., listed as Forms E, F, and G
[7] = weight transition 2811 (conversion away from Form E), 5° C./min
[8] = weight transition 2812 (conversion away from Form F), 5° C./min
[9] = weight transition 2813 (conversion away from Form G), 5° C./min
[10] = weight transition 2814 (decomposition/melting of crystalline Form B, loss of citrate), 5° C./min
[11] = transition 3411 (first endothermic transition, conversion of Form E to Form B), heating rate 5° C./min
[12] = transition 3412 (second endothermic transition, conversion of Form F to Form B), heating rate 5° C./min
[13] = transition 3413 (third endothermic transition, conversion of Form G to Form B), heating rate 5° C./min
[14] = transition 3414 (fourth endothermic transition, decomposition/melting of crystalline Form B), heating rate 5° C./min
[15] = heating rate 5° C./min, sample of the single form (Form H formed from Form E sample), ±3° C.
[16] = heating rate 5° C./min, A, B, H: melting/decomposition, E: loss of water and conversion to Form H, ±3° C.
[17] = sample containing Forms A and D, 5° C./min
[18] = mixture of Forms A and D, 0.3° C./min

For `CC(C)(O)c1ccc2c(c1)/C(=C/CCN1CC[C@](O)(c3ccc(Cl)cc3)C(C)(C)C1)c1cccnc1CO2` [Form D, citrate salt of (S)-4-(4-Chloro-phenyl)-1-{3-[7-(1-hydroxy-1-methyl-ethyl)-11H-10-oxa-1-aza-dibenzo[a,d]cyclohepten-5-ylidene]-propyl}-3,3-dimethyl-piperidin-4-ol], the “transition to Form A observed by temperature controlled XRPD” value ([1]; sample containing Forms A and D) was “below 60 °C”, the “XRPD before and after water sorption/desorption cycling” value ([2]; 25° C.) was “disappeared after the cycling; only the signature of Form A remains” and the “DSC endothermic transition, Tmax” value [3, 5] was 52 °C. For the same compound, the “DSC endothermic transition, interpolated beginning temperature” value [3, 5] was “about 47 °C” and the “DSC endothermic transition, integrated enthalpy” value ([3]; mixture of Forms A and D, 0.3° C./min, conversion of Form D to Form A) was 3.7 J/g.

In the case of `CC(C)(O)c1ccc2c(c1)/C(=C/CCN1CC[C@](O)(c3ccc(Cl)cc3)C(C)(C)C1)c1cccnc1CO2` [Form E, F, and G], the “global / net weight loss after all 4 water sorption/desorption cycles” value [2, 6] is reported as “about 7.5 % (w/w)”, the “weight change / water uptake between 10% and 90% relative humidity” value [2, 6] is reported as 2.10 % (w/w) and the “weight gain / water uptake as relative humidity is increased from 0% to 10%” value [2, 6] is reported as 3.76 % (w/w). The “Interpolated Starting T (° C.)” value [4, 7] was 42 °C, the “T (° C.) corresponding to Max. Rate of Weight Change” value [4, 7] was 50 °C and the “Weight Loss % (w/w)” value [4, 7] was 1.9 % (w/w). The “Interpolated Starting T (° C.)” value [4, 8] was 110 °C, the “T (° C.) corresponding to Max. Rate of Weight Change” value [4, 8] was 123 °C and the “Weight Loss % (w/w)” value [4, 8] was 3.6 % (w/w). For the same compound, the “Interpolated Starting T (° C.)” value [4, 9] was 131 °C, the “T (° C.) corresponding to Max. Rate of Weight Change” value [4, 9] was 138 °C and the “Weight Loss % (w/w)” value [4, 9] was 1.6 % (w/w). The “Interpolated Starting T (° C.)” value [4, 10] was 166 °C, the “T (° C.) corresponding to Max. Rate of Weight Change” value [4, 10] was 187 °C and the “Weight Loss % (w/w)” value [4, 10] was 22.6 % (w/w). For the same compound, the “Integrated Enthalpy Change” value [3, 11] was 20.3 J/g, the “Interpolated Starting T” value [3, 11] was 78 °C and the Tmax [3, 11] was 99 °C. The “Integrated Enthalpy Change” value [3, 12] was 5.8 J/g, the “Interpolated Starting T” value [3, 12] was 119 °C and the Tmax [3, 12] was 124 °C. The “Integrated Enthalpy Change” value [3, 13] was 2.4 J/g, the “Interpolated Starting T” value [3, 13] was 131 °C and the Tmax [3, 13] was 136 °C. For the same compound, the “Interpolated Starting T” value [3, 14] was 165 °C and the Tmax [3, 14] was 181 °C.

With `CC(C)(O)c1ccc2c(c1)/C(=C/CCN1CC[C@](O)(c3ccc(Cl)cc3)C(C)(C)C1)c1cccnc1CO2` [Form F, citrate salt of (S)-4-(4-Chloro-phenyl)-1-{3-[7-(1-hydroxy-1-methyl-ethyl)-11H-10-oxa-1-aza-dibenzo[a,d]cyclohepten-5-ylidene]-propyl}-3,3-dimethyl-piperidin-4-ol] the “form conversion as the temperature is raised (isothermal XRPD)” value [1] was “converts to Form B”, the “loss of stability (lines unique to the form disappear), isothermal XRPD” value [1] was “greater than 110 °C” and the “XRPD before and after water sorption/desorption cycling” value ([2]; 25° C.) was “disappears”.

With `CC(C)(O)c1ccc2c(c1)/C(=C/CCN1CC[C@](O)(c3ccc(Cl)cc3)C(C)(C)C1)c1cccnc1CO2` [Form G, citrate salt of (S)-4-(4-Chloro-phenyl)-1-{3-[7-(1-hydroxy-1-methyl-ethyl)-11H-10-oxa-1-aza-dibenzo[a,d]cyclohepten-5-ylidene]-propyl}-3,3-dimethyl-piperidin-4-ol] the “form conversion as the temperature is raised (isothermal XRPD)” value [1] was “converts to Form B”, the “loss of stability (lines unique to the form disappear), isothermal XRPD” value [1] was ≥ 130 °C and the “XRPD before and after water sorption/desorption cycling” value ([2]; 25° C.) was “have dissipated”.

In the case of `CC(C)(O)c1ccc2c(c1)/C(=C/CCN1CC[C@](O)(c3ccc(Cl)cc3)C(C)(C)C1)c1cccnc1CO2` [Form H, citrate salt of (S)-4-(4-Chloro-phenyl)-1-{3-[7-(1-hydroxy-1-methyl-ethyl)-11H-10-oxa-1-aza-dibenzo[a,d]cyclohepten-5-ylidene]-propyl}-3,3-dimethyl-piperidin-4-ol], the “behaviour when exposed to 10% relative humidity or higher” value ([2]; ambient temperatures) is reported as “reversibly transforms into form E”, the “TGA weight loss of the transition” value ([4]; heating rate 5° C./min, sample of the single form (Form H formed from Form E sample)) is reported as 20.10 % (w/w) and the “TGA weight loss transition, interpolated beginning temperature” value [4, 15] is reported as 127 °C. For the same compound, the “TGA weight loss transition, temperature of maximum rate of weight loss” value [4, 15] was 142 °C, the “DSC endothermic transition, Tmax” value [3, 16] was 141 °C and the “DSC endothermic transition, interpolated beginning temperature” value [3, 16] was 131 °C.

In the case of `CC(C)(O)c1ccc2c(c1)/C(=C/CCN1CC[C@](O)(c3ccc(Cl)cc3)C(C)(C)C1)c1cccnc1CO2` [Forms A and D], the “global / net weight loss after all 4 water sorption/desorption cycles” value ([2]; 25° C.) is reported as “about 14.3 % (w/w)”, the “TGA second weight loss transition 1812, interpolated beginning temperature” value [4, 17] is reported as 164 °C and the “TGA second weight loss transition 1812, temperature of maximum weight loss rate” value [4, 17] is reported as 180 °C. The “DSC endothermic transition 1912 (release of THF), Tmax” value [3, 18] was 77 °C, the “DSC endothermic transition 1912 (release of THF), beginning temperature” value [3, 18] was “about 60 °C” and the “DSC endothermic transition 1912 (release of THF), enthalpy” value [3, 18] was 18.1 J/g.
